Reference: PMC8443647, “Hybrid derivative of cathelicidin and human beta defensin-2 against Gram-positive bacteria: A novel approach for the treatment of bacterial keratitis” (Scientific Reports, 2021)
Where two headings read alike, the source gives them in different places. Peptide text beside a SMILES is read from it.

How the values were obtained:
[1] = system: MRSA-OS; experiment: microbe, parasite or virus in culture; type: cell-based, Staphylococcus aureus; conditions: 24 h
Description: (§1) A range of Gram-positive and Gram-negative laboratory- and clinical-strain bacteria were used for the experiments. These included laboratory-strain methicillin-sensitive S. aureus (MSSA; including SH1000 and ATCC SA29213), laboratory-strain MRSA (ATCC MRSA43300), clinical-strain MRSA (MRSA-OS; an IK isolate), laboratory-strain methicillin-sensitive Staphylococcus epidermidis (MSSE; ATCC SE12228), laboratory invasive-strain P. aeruginosa (PAO1-L), and clinical cytotoxic-strain P. aeruginosa (PA-OS; an IK isolate).
(§2) In vitro antimicrobial efficacy of the antibiotics and designed HDPs was determined using an established MIC assay with broth microdilution method approved by the Clinical and Laboratory Standards Institute (CLSI)[64]. Briefly, the microorganisms were cultured on Tryptone Soya Agar (TSA) and incubated overnight for 18–21 h at 37 °C. Bacterial inoculums were subsequently prepared using the direct colony suspension method. Three to five bacterial colonies were obtained from the agar plate and inoculated into an Eppendorf tube containing 1 ml of cation-adjusted Muller-Hinton broth (caMHB), consisting of 20–25 mg/L calcium ions (Ca^2+) and 10–12.5 mg/L magnesium ions (Mg^2+). The bacterial suspension was adjusted to achieve a turbidity equivalent to 0.1 OD600 or 0.5 MacFarland, containing ~ 1.5 × 10^8 colony-forming unit (CFU)/ml, which was then further diluted in 1:150 in caMHB to reach a final bacterial concentration of ~ 1 × 10^6 colony forming units (CFU)/ml. Each treatment (peptide or antibiotic) was prepared in 1:2 serial dilution in 96-well polypropylene microplates (with a final treatment volume of 50 μl per well), followed by the addition of 50 μl of 1 × 10^6 CFU/ml bacteria into each well (with a final bacterial concentration of 5 × 10^5 CFU/ml).

[2] = system: S. aureus SH1000; experiment: microbe, parasite or virus in culture; type: cell-based, Staphylococcus aureus
Description: as §1, §2

[3] = system: P. aeruginosa PAO1-L; experiment: microbe, parasite or virus in culture; type: cell-based
Description: as §1, §2

[4] = system: P. aeruginosa PA-OS; experiment: microbe, parasite or virus in culture; type: cell-based; conditions: 24 h
Description: as §1, §2

[5] = system: human corneal epithelial cells (HCE-2); experiment: cells; type: cell-based; conditions: 3 h
Experimental: Cell viability and cytotoxicity of antibiotics and peptides were determined against human corneal epithelial cells (HCE-2, CRL-11135, ATCC, Manassas, Virginia, USA) using cell-counting-kit-8 (CCK-8) assay (Sigma Aldrich, Merck Life Science UK Limited, Dorset, UK) and lactate dehydrogenase (LDH) assay (ThermoFisher Scientific, UK), respectively, as per manufacturer’s guidelines. HCE-2 cells were cultured and seeded into a 96-well plate at a density of 7.5 × 10^3 cells/well and allowed to attach overnight and grew to 80–90% confluency in keratinocyte serum free medium (KSFM) supplemented with human recombinant epidermal growth factor, bovine pituitary extract, hydrocortisone, and insulin. Once the confluency reached 80–90%, the cells were incubated with treatment for 3 h before OD450 measurement was taken using BMG Clariostar microplate reader (BMG Labtech Ltd., Aylesbury, UK). Appropriate controls were used, including 0.1% Triton X-100 as positive control and KSFM as negative control. Cell viability was calculated using the following formula: [([…]) × 100; I = intensity] and cytotoxicity was calculated using the following formula: [((Itreatment – INC)/(IPC – INC)) × 100].

[6] = 0 mM NaCl, caMHB, read-out: MIC
[7] = 0 mM NaCl, caMHB, 24 h, read-out: MIC

NCCCC[C@H](NC(=O)[C@H](CS)NC(=O)[C@H](CS)NC(=O)[C@@H](N)CCCCN)C(=O)N[C@@H](CCCCN)C(=O)N1CCC[C@H]1C(=O)O [BD2-6, KCCKKP] (H-KCCKKP-OH; N-terminus and C-terminus assumed)
MIC [1, 6]: > 283.3 µM
MIC ([1]; -OS): > 200 µg/mL
MIC [2, 7]: > 283.3 µM
MIC ([2]; SH1000, 24 h): > 200 µg/mL
MIC [3, 7]: > 283.3 µM
MIC ([3]; PAO1, 24 h): > 200 µg/mL

N=C(N)NCCC[C@H](NC(=O)CNC(=O)[C@@H](N)CCCNC(=N)N)C(=O)N[C@@H](CCCCN)C(=O)N[C@@H](CS)C(=O)N[C@@H](CS)C(=O)N[C@@H](CCCNC(=N)N)C(=O)N[C@@H](CCCNC(=N)N)C(=O)N[C@@H](CCCCN)C(=O)N[C@@H](CCCCN)C(=O)O [BD3-10, RGRKCCRRKK] (H-RGRKCCRRKK-OH; N-terminus and C-terminus assumed)
MIC [1, 6]: > 154.9 µM
MIC ([1]; -OS): > 200 µg/mL
MIC [2, 7]: > 154.9 µM
MIC ([2]; SH1000, 24 h): > 200 µg/mL
MIC [3, 7]: > 154.9 µM
MIC ([3]; PAO1, 24 h): > 200 µg/mL

CC[C@H](C)[C@H](NC(=O)[C@H](CCCNC(=N)N)NC(=O)[C@H](CCC(N)=O)NC(=O)[C@@H](NC(=O)[C@@H](NC(=O)[C@H](CCCNC(=N)N)NC(=O)[C@@H](N)CCCCN)[C@@H](C)CC)C(C)C)C(=O)N[C@@H](CCCCN)C(=O)N[C@@H](CC(=O)O)C(=O)N[C@@H](Cc1ccccc1)C(=O)N[C@@H](CC(C)C)C(=O)N[C@@H](CCCNC(=N)N)C(=O)O [Ca12, KRIVQRIKDF LR] (H-KRIVQRIKDFLR-OH; N-terminus and C-terminus assumed)
MIC ([1]; -OS): > 200 µg/mL
MIC ([2]; SH1000, 24 h): > 200 µg/mL
MIC ([3]; PAO1, 24 h): 200 µg/mL

CC[C@H](C)[C@H](NC(=O)[C@H](CCCNC(=N)N)NC(=O)[C@H](CCC(N)=O)NC(=O)[C@@H](NC(=O)[C@@H](NC(=O)[C@H](CCCNC(=N)N)NC(=O)[C@@H](N)CCCCN)[C@@H](C)CC)C(C)C)C(=O)N[C@@H](CCCCN)C(=O)N[C@@H](CC(=O)O)C(=O)N[C@@H](Cc1ccccc1)C(=O)N[C@@H](CC(C)C)C(=O)N[C@@H](CCCNC(=N)N)C(=O)N[C@@H](CCCNC(=N)N)C(=O)NCC(=O)N[C@@H](CCCCN)C(=O)N[C@@H](C)C(=O)N[C@@H](CCCCN)C(=O)O [CaD1, KRIVQRIKDF LRRGKAK] (H-KRIVQRIKDFLRRGKAK-OH; N-terminus and C-terminus assumed)
MIC ([1]; -OS): > 200 µg/mL
MIC ([2]; SH1000, 24 h): > 200 µg/mL
MIC ([3]; PAO1, 24 h): > 200 µg/mL

CC[C@H](C)[C@H](NC(=O)[C@@H](N)CCCNC(=N)N)C(=O)N[C@@H](CCCCN)C(=O)N[C@@H](CC(=O)O)C(=O)N[C@@H](Cc1ccccc1)C(=O)N[C@@H](CC(C)C)C(=O)N[C@@H](CCCNC(=N)N)C(=O)N[C@@H](CC(N)=O)C(=O)NCC(=O)N[C@@H](CCCNC(=N)N)C(=O)N[C@@H](CCCCN)C(=O)N[C@@H](CS)C(=O)N[C@@H](CS)C(=O)N[C@@H](CCCNC(=N)N)C(=O)N[C@@H](CCCNC(=N)N)C(=O)N[C@@H](CCCCN)C(=O)N[C@@H](CCCCN)C(=O)O [CaD3, RIKDFLRNGR KCCRRKK] (H-RIKDFLRNGRKCCRRKK-OH; N-terminus and C-terminus assumed)
MIC [1, 6]: > 91.8 µM
MIC ([1]; -OS): > 200 µg/mL
MIC [2, 7]: > 91.8 µM
MIC ([2]; SH1000, 24 h): > 200 µg/mL
MIC [3, 7]: > 91.8 µM
MIC ([3]; PAO1, 24 h): > 200 µg/mL

CC[C@H](C)[C@H](NC(=O)[C@H](CCCNC(=N)N)NC(=O)[C@H](CCC(N)=O)NC(=O)[C@@H](NC(=O)[C@@H](NC(=O)[C@H](CCCNC(=N)N)NC(=O)[C@@H](N)CCCCN)[C@@H](C)CC)C(C)C)C(=O)N[C@@H](CCCCN)C(=O)N[C@@H](CC(=O)O)C(=O)N[C@@H](Cc1ccccc1)C(=O)N[C@@H](CC(C)C)C(=O)N[C@@H](CCCNC(=N)N)C(=O)N[C@@H](CCCCN)C(=O)N[C@@H](C)C(=O)N[C@@H](CS)C(=O)N[C@@H](CCCCN)C(=O)N[C@@H](CCCCN)C(=O)N1CCC[C@H]1C(=O)O [CaD21, KRIVQRIKDF LRKACKKP] (H-KRIVQRIKDFLRKACKKP-OH; N-terminus and C-terminus assumed)
MIC ([1]; -OS): > 200 µg/mL
MIC ([2]; SH1000, 24 h): 200 µg/mL
MIC ([4]; PA-OS): 200 µg/mL
IC50 (concentration causing 50% inhibition of cell viability) [5]: > 200 µg/mL

CC[C@H](C)[C@H](NC(=O)[C@H](CCCNC(=N)N)NC(=O)[C@H](CCC(N)=O)NC(=O)[C@@H](NC(=O)[C@@H](NC(=O)[C@H](CCCNC(=N)N)NC(=O)[C@@H](N)CCCCN)[C@@H](C)CC)C(C)C)C(=O)N[C@@H](CCCCN)C(=O)N[C@@H](CC(=O)O)C(=O)N[C@@H](Cc1c[nH]c2ccccc12)C(=O)N[C@@H](CC(C)C)C(=O)N[C@@H](CCCNC(=N)N)C(=O)N[C@@H](CCCCN)C(=O)N[C@@H](CS)C(=O)N[C@@H](CS)C(=O)N[C@@H](CCCCN)C(=O)N[C@@H](CCCCN)C(=O)N1CCC[C@H]1C(=O)O [CaD22, KRIVQRIKDW LRKCCKKP] (H-KRIVQRIKDWLRKCCKKP-OH; N-terminus and C-terminus assumed)
MIC [1, 6]: > 87.0 µM
MIC ([1]; -OS): > 200 µg/mL
MIC [2, 7]: 43.5 µM
MIC ([2]; 150 mM NaCl, caMHB, 24 h, read-out: MIC): > 87.0 µM
MIC [4, 6]: 87.0 µM
MIC ([4]; PA-OS): 200 µg/mL
MIC [3, 7]: 87.0 µM
MIC ([3]; PAO1, 24 h): 200 µg/mL
IC50 (concentration causing 50% inhibition of cell viability) [5]: > 200 µg/mL
Imax (%): percentage of inhibition of cell viability at 200 µg/ml ([5]; HCE-2, CCK-8 assay, 200 µg/ml, mean (SD)): 34.3 (8.2) %

C[C@H](NC(=O)[C@H](CCCCN)NC(=O)CNC(=O)[C@@H](N)CCCNC(=N)N)C(=O)N[C@@H](CCCCN)C(=O)N[C@@H](CS)C(=O)N[C@@H](CS)C(=O)N[C@@H](CCCCN)C(=O)NCC(=O)N[C@H](C(=O)N[C@@H](CCCCN)C(=O)N[C@@H](CS)C(=O)N[C@@H](CS)C(=O)N[C@@H](CCCCN)C(=O)N[C@@H](CCCCN)C(=O)N1CCC[C@H]1C(=O)O)[C@@H](C)O [DD12, RGKAKCCKGT KCCKKP] (H-RGKAKCCKGTKCCKKP-OH; N-terminus and C-terminus assumed)
MIC [1, 6]: > 115 µM
MIC ([1]; -OS): > 200 µg/mL
MIC [2, 7]: > 115 µM
MIC ([2]; SH1000, 24 h): > 200 µg/mL
MIC [3, 7]: > 115 µM
MIC ([3]; PAO1, 24 h): > 200 µg/mL

C[C@H](NC(=O)[C@H](CCCCN)NC(=O)CNC(=O)[C@@H](N)CCCNC(=N)N)C(=O)N[C@@H](CCCCN)C(=O)N[C@@H](CS)C(=O)N[C@@H](CS)C(=O)N[C@@H](CCCCN)C(=O)N[C@@H](CCCNC(=N)N)C(=O)NCC(=O)N[C@@H](CCCNC(=N)N)C(=O)N[C@@H](CCCCN)C(=O)N[C@@H](CS)C(=O)N[C@@H](CS)C(=O)N[C@@H](CCCNC(=N)N)C(=O)N[C@@H](CCCNC(=N)N)C(=O)N[C@@H](CCCCN)C(=O)N[C@@H](CCCCN)C(=O)O [DD13, RGKAKCCKRG RKCCRRKK] (H-RGKAKCCKRGRKCCRRKK-OH; N-terminus and C-terminus assumed)
MIC [1, 6]: > 92.3 µM
MIC ([1]; -OS): > 200 µg/mL
MIC [2, 7]: > 92.3 µM
MIC ([2]; SH1000, 24 h): > 200 µg/mL
MIC [3, 7]: > 92.3 µM
MIC ([3]; PAO1, 24 h): > 200 µg/mL

N=C(N)NCCC[C@H](NC(=O)CNC(=O)[C@@H](N)CCCNC(=N)N)C(=O)N[C@@H](CCCCN)C(=O)N[C@@H](CS)C(=O)N[C@@H](CS)C(=O)N[C@@H](CCCNC(=N)N)C(=O)N[C@@H](CCCNC(=N)N)C(=O)N[C@@H](CCCCN)C(=O)N[C@@H](CCCCN)C(=O)N[C@@H](CCCCN)C(=O)N[C@@H](CS)C(=O)N[C@@H](CS)C(=O)N[C@@H](CCCCN)C(=O)N[C@@H](CCCCN)C(=O)N1CCC[C@H]1C(=O)O [DD32, RGRKCCRRKK KCCKKP] (H-RGRKCCRRKKKCCKKP-OH; N-terminus and C-terminus assumed)
MIC [1, 6]: > 101 µM
MIC [2, 7]: > 101 µM
MIC ([2]; SH1000, 24 h): > 200 µg/mL
MIC [3, 7]: > 101 µM
MIC ([3]; PAO1, 24 h): > 200 µg/mL
